# Assay results reported in the supplement of paper PMC10307832.
# Experiments:
# Test in all cases: relative viability (nuclei count vs DMSO), 5 days (fraction); higher = more cells survive
# Midostaurin = compound: CO[C@@H]1[C@H](N(C)C(=O)c2ccccc2)C[C@H]2O[C@]1(C)n1c3ccccc3c3c4c(c5c6ccccc6n2c5c31)C(=O)NC4 [Midostaurin]
# Summary of the method: (§1)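 Nuclei counted with MetaXpress define viability as the ratio of treated to vehicle wells, given as a median across plates. The lung cancer cell lines were in 1536-well plates, pinned with five √10-spaced library-drug doses and imaged at 4× after 5 days and Hoechst staining. Plates passed with control CV below 25% and at least one doubling.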
# [1] = compound: COc1cc(-c2nn([C@H]3CC[C@H](N4CCN(C(C)=O)CC4)CC3)c3ncnc(N)c23)ccc1NC(=O)c1cc2ccccc2n1C
# Summary of the method: as §1
# Midostaurin + OSI-027 = compound: CO[C@@H]1[C@H](N(C)C(=O)c2ccccc2)C[C@H]2O[C@]1(C)n1c3ccccc3c3c4c(c5c6ccccc6n2c5c31)C(=O)NC4 [Midostaurin] + COc1cccc2cc(-c3nc([C@H]4CC[C@H](C(=O)O)CC4)n4ncnc(N)c34)[nH]c12 [OSI-027] (partner 0.5 µM)
# Summary of the method: (§2)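 Each reported value is a median over duplicate plates. It expresses relative viability: treated-well nuclei count divided by vehicle-well nuclei count. Lung cancer cell lines in 1536-well plates were dosed by pin tool a day after seeding, alone with one drug or with a fixed anchor-drug dose plus five library-drug doses (not always all listed) in √10 steps, and nuclei were counted after 5 days.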
# [2] = compound: COc1cc(-c2nn([C@H]3CC[C@H](N4CCN(C(C)=O)CC4)CC3)c3ncnc(N)c23)ccc1NC(=O)c1cc2ccccc2n1C + Nc1nc2[nH]cc(CCc3ccc(C(=O)N[C@@H](CCC(=O)O)C(=O)O)cc3)c2c(=O)[nH]1 [Pemetrexed] (partner 0.2 µM)
# Summary of the method: as §2
# [3] = compound: COc1cc(-c2nn([C@H]3CC[C@H](N4CCN(C(C)=O)CC4)CC3)c3ncnc(N)c23)ccc1NC(=O)c1cc2ccccc2n1C + O=C(CCCCCCC(=O)Nc1ccccc1)NO [Vorinostat] (partner 1 µM)
# Summary of the method: as §2
Cell Line,relative viability (Midostaurin; 0.01 µM),relative viability (Midostaurin; 0.03162 µM),relative viability (Midostaurin; 0.1 µM),relative viability (Midostaurin; 0.3162 µM),relative viability ([1]; 0.0128 µM),relative viability ([1]; 0.04048 µM),relative viability ([1]; 0.128 µM),relative viability ([1]; 1.28 µM),relative viability (Midostaurin + OSI-027; first compound 0.01 µM),relative viability (Midostaurin + OSI-027; first compound 0.03162 µM),relative viability (Midostaurin + OSI-027; first compound 0.1 µM),relative viability (Midostaurin + OSI-027; first compound 0.3162 µM),relative viability ([2]; first compound 0.0128 µM),relative viability ([2]; first compound 0.04048 µM),relative viability ([2]; first compound 0.128 µM),relative viability ([2]; first compound 1.28 µM),relative viability ([3]; first compound 0.0128 µM),relative viability ([3]; first compound 0.04048 µM),relative viability ([3]; first compound 0.128 µM),relative viability ([3]; first compound 1.28 µM)
NCI-H1437,0.96,0.999,0.972,0.92,0.979,1.04,0.964,0.906,0.816,0.895,0.853,0.933,0.351,0.339,0.287,0.303,0.967,1,0.856,0.864
NCI-H1648,0.937,0.803,0.724,0.927,0.964,0.766,0.858,0.721,0.285,0.221,0.275,0.233,0.92,0.738,0.857,0.646,0.536,0.48,0.526,0.341
NCI-H1650,0.915,0.957,0.921,0.937,0.922,1.1,0.941,0.812,0.574,0.71,0.647,0.597,0.332,0.384,0.348,0.468,0.575,0.829,0.663,0.578
NCI-H1651,0.95,1,1.01,1.09,0.97,1.07,0.923,0.968,0.707,0.78,0.713,0.864,0.57,0.617,0.57,0.438,0.571,0.618,0.545,0.495
NCI-H1666,1.03,0.953,0.992,0.888,0.98,0.872,0.947,0.941,0.8,0.794,0.883,0.903,0.881,0.803,0.84,0.847,1.14,0.938,1.13,1.14
NCI-H1734,0.939,0.939,0.998,0.871,1,0.944,0.948,0.783,0.57,0.589,0.632,0.552,0.432,0.391,0.406,0.432,0.873,0.787,0.783,0.852
NCI-H1755,0.983,0.983,0.962,0.977,1.12,0.983,0.937,0.938,0.74,0.677,0.678,0.483,0.438,0.43,0.577,0.57,1,0.945,0.721,0.951
NCI-H1793,1.16,0.848,0.89,0.762,0.904,0.827,0.858,0.649,0.319,0.287,0.263,0.216,1.04,0.771,0.871,0.617,0.981,0.658,0.794,0.528
NCI-H1915,0.951,0.946,0.951,1.03,1.03,0.783,0.957,0.831,0.623,0.555,0.568,0.597,0.536,0.452,0.488,0.5,0.651,0.577,0.507,0.44
NCI-H1944,0.963,0.987,0.931,1.15,1.09,0.983,0.921,0.769,0.385,0.399,0.416,0.411,0.65,0.589,0.571,0.6,0.654,0.641,0.578,0.416
NCI-H1975,0.888,0.971,0.878,0.799,0.958,0.972,0.875,0.479,0.784,0.838,0.752,0.607,0.318,0.29,0.297,0.255,0.724,0.735,0.624,0.41
NCI-H1993,0.948,1.01,1.17,0.802,0.966,0.737,0.834,0.87,0.519,0.546,0.54,0.576,0.684,0.543,0.598,0.599,0.916,0.682,0.957,0.726
NCI-H2009,0.972,0.904,0.961,0.939,1.01,0.861,0.927,0.973,0.542,0.522,0.453,0.426,1.03,1.09,1.21,1.19,0.711,0.702,0.78,0.751
NCI-H2023,1.07,0.893,0.922,0.59,1.02,1.13,0.923,0.906,0.426,0.385,0.41,0.302,0.258,0.211,0.229,0.242,0.821,0.631,0.646,0.695
NCI-H2085,1.06,0.889,1.02,0.919,1.01,1.01,0.99,0.992,0.752,0.655,0.837,0.461,0.915,0.86,0.81,0.539,0.83,1.17,0.764,0.759
